From patent US10561670B2, “Compositions comprising acidic extracts of mastic gum” (REGENERA PHARMA LTD., priority 2010, dated 2020)

Test system: rat MCAO model
Experiment: Rat MCAO stroke model, adhesive removal test
Assay type: in vivo
Settings: for Time to remove the adhesive tape from the contralateral paw: day 27, subcutaneous 25 microliters twice a week, each compound 0.65% (w/w) in cottonseed oil, versus vehicle and base line (FIG. 14A)
Description: For the experiments described herein, the animals are anesthetized using ketamine/xylazine solution. The animal's neck is then shaved and a midline incision is made in the skin of the neck, and the tissue underneath is bluntly dissected. The right common carotid artery (CCA) and its junction with the external carotid artery (ECA) and internal carotid artery (ICA) are exposed by blunt dissection. The CCA is then transiently closed by positioning around it a 3-0 silk suture material. The ECA is permanently occluded with the same type of suture material. A third closure, transient, is also done in the ICA with 3-0 silk suture material.
A small hole is cut in the ECA and the nylon thread is inserted into the ICA while avoiding entrance into the pterygopalatine artery. The thread is inserted 21-25 mm until a slight resistance is felt. Then a 3-0 silk suture knot secures the thread.
Following surgery, the rats are returned to their cages and remain under a heating lamp until they awake.
Two parameters are monitored and recorded during the ischemic surgery procedure: animal's core temperature and blood glucose level (BGL).
Core temperature is monitored using rectal probe (YSI USA model 400) connected to a measuring unit (Cole Parmer model 8402-00) during the entire surgery period. Ischemic insult is started when rectal temperature is 37-38° C.
The rats of the different groups were injected twice a week subcutaneous with 25 microliters of designated test item. First injection was given three hours after stroke induction.
• Vehicle: cottonseed oil • IMDA: 0.65% (w/w) in cottonseed oil • MDA: 0.65% (w/w) in cottonseed oil • IMDA and MDA: each 0.65% (w/w) in cottonseed oil • IMDA, MDA and OA: each 0.65% (w/w) in cottonseed oil MDA alone; IMDA alone; a combination of MDA+IMDA; and a combination of OA+MDA+IMDA, were tested using a rat MCAO model, for their therapeutic capacity. Stroke induced rats were treated with each of the tested compounds and the improvement of their sensorimotor abilities were tested using the adhesive removal test. […] The time to remove the tape is recorded. […]

| Compound | Time to remove the adhesive tape from the contralateral paw | Baseline fold change, removal of adhesive tape from the contralateral paw (day 27 relative to base line score (FIG. 14B)) [fold] |
| --- | --- | --- |
| CC(=CCCC(C)C1CCC2(C)C3=C(CCC12C)C1(C)CCC(=O)C(C)(C)C1CC3)C(=O)O (stereo not drawn) [IMDA, Isomasticadienoic acid] | able to improve the score of treated rats | 10 |
| C/C(=C\CC[C@H](C)[C@@H]1CC[C@]2(C)C3=CC[C@H]4C(C)(C)C(=O)CC[C@]4(C)[C@H]3CC[C@@]12C)C(=O)O [MDA, Masticadienoic acid] | only slightly better than the vehicle control | – |
